# “And” between values parts separate entries of the source, which are not always exact repeats. Identical values can stand only once. Like-named read-outs stand apart in the source and are kept apart here.
# Experiments:
# E. coli MCR1 = assay: microbe, parasite or virus in culture
# Experimental: (§1) For 15 d in MHB, MICs were determined daily for each pseudopeptide and their antibiotic controls. This was done using cells from the well in which the compound concentration was one-half of the MIC (1/2MIC). For each compound, the 1/2MIC well from the previous day’s MIC assay plate was re-suspended and the bacteria grown to a density of about 10^8 cells ml−1. The suspension was diluted in MHB or CAMHB (10^6 cells/ml) and then used to determine the MIC of the same compound determined by micro broth dilution. All MIC measurements were performed in duplicate. Aliquots of the 5 × 10^4 cell/ml dilutions for each 1/2MIC well were periodically plated on MHB and incubated at 35°C for 18 h to verify cell density by colony counts and for visual inspection of colony phenotypes. To control compound stability, peptide solution MICs were determined during and at the end of the 15 d and were compared to cells unexposed to antibiotics. In vivo resistance was also assessed in treated mice (1.5 mg.kg^−1) for 4 d (sepsis) or 6 d (skin abscesses). […] The broth microdilution method was performed as per EUCAST recommendations on 5 independent colonies per mouse (3 mice per set, 15 colonies per drug tested). For severe sepsis and subcutaneous abscesses, in vivo resistance was determined by plating aliquots of crude kidney extracts or abscesses on plates containing 1-, 2-, 4-, or 8-fold the peptide MICs 7 or 3 d post infections, respectively.
# E. coli 13090 = assay: microbe, parasite or virus in culture
# Experimental: as §1
# E. coli K12 = assay: microbe, parasite or virus in culture
# Experimental: as §1
# P. aeruginosa 15643 [1] = assay: microbe, parasite or virus in culture
# Experimental: as §1
# S. aureus N315 (MRSA) = assay: microbe, parasite or virus in culture
# Experimental: (§2) (10−4 M final concentrations). At selected time intervals, 100 μl of reaction mixture was collected, quenched by 200 μl 95% EtOH, and adjusted at pH 2 to prevent peptide adsorption to serum proteins. […] Supernatants were analyzed by RP-HPLC on an Xbridge C18 column with a linear gradient of water, 0.08% TFA, and acetonitrile with 1% TFA. HPLC peak areas were used to calculate the percentages of intact compound remaining at the various time points. MIC and MBC values were determined in triplicate in many ESKAPE clinical isolates, including a dozen MDR S. aureus, by the broth microdilution method. Peptidomimetics and antibiotics were assayed in a concentration range of 1 to 128 μM. The bacterial inoculum (5 × 10^5 colony-forming units [CFUs]/well) was prepared in MHB or CAMHB (150 μl). A Biotek Synergy 2 spectrophotometer was used to record the results after 18–20 h incubation at 35°C (±2°C). […] After every hour of culture for 4 h, serial dilutions were plated on BHI plates and incubated overnight at 37°C, and then the CFUs were counted and expressed as log CFU/ml. Phosphate-buffered saline (PBS)-exposed S. aureus MRSA was included as a control.
# MRSA (Mu3) = assay: microbe, parasite or virus in culture
# Experimental: as §1
# MSSA (Newman) = assay: microbe, parasite or virus in culture; details: for MIC: Staphylococcus aureus
# Experimental: as §1
# P. aeruginosa LESB58 = assay: Cutaneous abscess mouse model (CFU); type: in vivo, mice; details: cutaneous abscesses induced by P. aeruginosa in mice; repeated doses post-infection, 9 mg/kg; second data set; individual values
# Experimental: For the cutaneous abscess model, the mice were randomly divided into 5 sets. The mice were anesthetized with isoflurane, their dorsal fur shaved, and their skin disinfected with 70% ethanol. An overnight culture of S. aureus MRSA or P. aeruginosa LESB58 was washed with 0.9% NaCl, and then a subcutaneous injection of 2 × 10^9 CFUs and an equal amount of sterile Cytodex microcarrier beads (20 mg.ml^−1, Sigma) for S. aureus MRSA, or 10^8 CFUs for P. aeruginosa were injected into the shaved area. […] Mice were monitored every day and then euthanized with CO2 on Day 6 or on Day 3. Abscesses were excised, measured, and homogenized in PBS using an Ultra-Turax. Serial dilutions of the samples were plated on BHI (MRSA) or 2YT medium (LESB58) plates and then incubated overnight at 37°C. Afterward, the CFUs were counted and expressed as log CFU/ml. Dermonecrosis areas were calculated according to the formula π × L × W. ATP levels were determined with an ATP assay kit (Promega) according to manufacturer instructions on sets of 5 colonies harboring the SCV phenotype, and sets of 5 colonies harboring a normal phenotype, after growth on BHI plates.
# Escherichia coli K12 = details: E. coli K12; for MIC: broth microdilution, 3 independent experiments
# Experimental: as §2
# S. aureus Mu3 (MRSA) = assay: microbe, parasite or virus in culture; details: S. aureus Mu3 (MRSA); broth microdilution; 3 independent experiments
# Experimental: as §2
# S. aureus Newman = assay: microbe, parasite or virus in culture; details: S. aureus Newman; broth microdilution; 3 independent experiments
# Experimental: as §2
# P. aeruginosa 15638 = test system: P. aeruginosa 15638
# Experimental: as §2
# Escherichia coli 293 = test system: Escherichia coli 293
# Experimental: as §2
# Escherichia coli PV = details: E. coli PV
# Experimental: as §2
# Escherichia coli 283 = test system: Escherichia coli 283
# Experimental: as §2
# Escherichia coli 146 = test system: Escherichia coli 146
# Experimental: as §2
# Escherichia coli 066 = test system: Escherichia coli 066
# Experimental: as §2
# P. aeruginosa PA14 = details: P. aeruginosa PA14
# Experimental: as §2
# Escherichia coli 444 = test system: Escherichia coli 444
# Experimental: as §2
# A. baumanii 7985 = test system: A. baumanii 7985
# Experimental: as §2
# P. aeruginosa 15637 = test system: P. aeruginosa 15637
# Experimental: as §2
# Escherichia coli 508 = test system: Escherichia coli 508
# Experimental: as §2
# A. baumanii 11896 = test system: A. baumanii 11896
# Experimental: as §2
# Escherichia coli 750 = test system: Escherichia coli 750
# Experimental: as §2
# K. pneumoniae 13829 = test system: K. pneumoniae 13829
# Experimental: as §2
# Escherichia coli MCR−1 = test system: Escherichia coli MCR−1
# Experimental: as §2
# [2] = test system: Enterobacter cloacae ATCC13047; details: Enterobacter cloacae ATCC13047
# Experimental: as §2
# Escherichia coli ML35P = details: E. coli ML35P
# Experimental: as §2
# Escherichia coli 13090 = test system: Escherichia coli 13090
# Experimental: as §2
# Escherichia coli 758 = test system: Escherichia coli 758
# Experimental: as §2
# P. aeruginosa 15643 [3] = test system: P. aeruginosa 15643
# Experimental: as §2
# K. pneumoniae 13825 = test system: K. pneumoniae 13825
# Experimental: as §2
# P. aeruginosa 15644 = test system: P. aeruginosa 15644
# Experimental: as §2
# P. aeruginosa 15641 = test system: P. aeruginosa 15641
# Experimental: as §2
# [4] = Stability in mouse serum (half-life); type: in vitro ADME; details: 25% mouse serum, pre-incubated 15 min at 37°C, peptide 10^−4 M, RP-HPLC peak areas, mean of biological triplicates
# Experimental: as §2
# (§3) Supplementary file pbio.3000337.s013.docx: S7 Table Peptide half-lives in human and mouse sera. […] Peptide amounts and half-lives were determined by HPLC. Experiments were conducted on 25% human or mouse sera. Values are shown in minutes. The mean values correspond to biological triplicates. HPLC, high pressure liquid chromatography. (DOCX) Click here for additional data file.
# [5] = Stability in human serum (half-life); type: in vitro ADME; details: 25% human serum, pre-incubated 15 min at 37°C, peptide 10^−4 M, RP-HPLC peak areas, mean of biological triplicates
# Experimental: as §2, §3
# [6] = broth microdilution, 3 independent experiments
molecule,measurement,setting,value
"C[C@@H]1O[C@@H]1P(=O)(O)O [Fosfomycin, fosfomycin, reference compound]",MIC,"E. coli MCR1; E. coli MCR1, d0 of serial passages",0.027 g/L
same,MIC,"E. coli MCR1; Escherichia coli, MCR1",200 µM
same,MIC,"E. coli 13090; E. coli 13090, d0 of serial passages",0.027 g/L
same,MIC,"E. coli 13090; Escherichia coli, 13090",200 µM
same,MIC,"E. coli K12; E. coli K12, d0 of serial passages",0.027 g/L
same,MIC,"E. coli K12; Escherichia coli, K12",200 µM
same,MIC,"P. aeruginosa 15643 [1]; P. aeruginosa 15643, d0 of serial passages",0.027 g/L
same,MIC,"P. aeruginosa 15643 [1]; Pseudomonas aeruginosa, 15643",200 µM
"COc1cccc(OC)c1C(=O)N[C@@H]1C(=O)N2[C@@H]1SC(C)(C)[C@@H]2C(=O)O [Methicillin, methicillin]",MIC,"S. aureus N315 (MRSA); Staphylococcus aureus, MRSA",32 µM
"CO[C@H]1/C=C/O[C@@]2(C)Oc3c(C)c(O)c4c(O)c(c(/C=N/N5CCN(C)CC5)c(O)c4c3C2=O)NC(=O)/C(C)=C\C=C\[C@H](C)[C@H](O)[C@@H](C)[C@@H](O)[C@@H](C)[C@H](OC(C)=O)[C@@H]1C [Rifampicin, rifampicin]",MIC,"MRSA (Mu3); MRSA (Mu3), d14 of serial passages at sub-MIC","1,024 (843) μM"
same,MIC,"MRSA (Mu3); Staphylococcus aureus, MRSA",1020 µM
same,Increase of MIC after 2 weeks of serial passages,MSSA (Newman); S. aureus,"about 30,000 fold"
same,MIC,"MSSA (Newman); MSSA (Newman), d0 of serial passages",0.03 µM
same,MIC,"MSSA (Newman); MSSA|NEWMAN, d14 of serial passages at sub-MIC",1020 µM
Colistine,CFU counts per abscess,P. aeruginosa LESB58,3.8 log Cfu/ml and 4 log Cfu/ml and 4.8 log Cfu/ml and 4.6 log Cfu/ml
nisin,MIC,Escherichia coli K12,4 (16) μM
same,MIC,S. aureus Mu3 (MRSA),8 (32) μM
same,MIC,S. aureus Newman,8 (32) μM
same,MIC,"S. aureus N315 (MRSA); S. aureus N315 (MRSA), broth microdilution, 3 independent experiments",8 (32) μM
polymyxin B [reference compound],MBC/MIC,P. aeruginosa 15638; P. aeruginosa 15638,2
same,MIC,"P. aeruginosa 15638; P. aeruginosa 15638, clinical strain, Caen hemoculture, broth microdilution, 3 independent experiments",1 (1.3) μM
same,MBC/MIC,Escherichia coli 293; E. coli 293,1
same,MIC,"Escherichia coli 293; E. coli 293, clinical strain, Rennes urinary catheter, broth microdilution, 3 independent experiments",0.5 (0.65) μM
same,MBC/MIC,Escherichia coli PV,1
same,MIC,"Escherichia coli PV; clinical strain, Rennes vascular prosthetics, broth microdilution, 3 independent experiments",0.5 (0.65) μM
same,MBC/MIC,Escherichia coli 283; E. coli 283,1
same,MIC,"Escherichia coli 283; E. coli 283, clinical strain, Rennes urinary catheter, broth microdilution, 3 independent experiments",0.5 (0.65) μM
same,MBC/MIC,Escherichia coli 146; E. coli 146,1
same,MIC,"Escherichia coli 146; E. coli 146, clinical strain, Rennes urinary catheter, broth microdilution, 3 independent experiments",1 (1.3) μM
same,MBC/MIC,Escherichia coli 066; E. coli 066,1
same,MIC,"Escherichia coli 066; E. coli 066, clinical strain, Rennes urinary catheter, broth microdilution, 3 independent experiments",1 (1.3) μM
same,MBC/MIC,P. aeruginosa PA14,2
same,MIC,P. aeruginosa PA14; [6],0.5 (0.65) μM
same,MBC/MIC,Escherichia coli 444; E. coli 444,1
same,MIC,"Escherichia coli 444; E. coli 444, clinical strain, Rennes urinary catheter, broth microdilution, 3 independent experiments",0.5 (0.65) μM
same,MBC/MIC,A. baumanii 7985; A. baumanii 7985,1
same,MIC,"A. baumanii 7985; A. baumanii 7985, clinical strain, Caen hemoculture, broth microdilution, 3 independent experiments",1 (1.3) μM
same,MBC/MIC,P. aeruginosa 15637; P. aeruginosa 15637,2
same,MIC,"P. aeruginosa 15637; P. aeruginosa 15637, clinical strain, Caen hemoculture, broth microdilution, 3 independent experiments",1 (1.3) μM
same,MBC/MIC,Escherichia coli K12,1
same,MIC,Escherichia coli K12,0.5 (0.65) μM
same,MBC/MIC,Escherichia coli 508; E. coli 508,1
same,MIC,"Escherichia coli 508; E. coli 508, clinical strain, Rennes urinary catheter, broth microdilution, 3 independent experiments",0.5 (0.65) μM
same,MBC/MIC,A. baumanii 11896; A. baumanii 11896,2
same,MIC,"A. baumanii 11896; A. baumanii 11896, clinical strain, Caen hemoculture, broth microdilution, 3 independent experiments",1 (1.3) μM
same,MBC/MIC,Escherichia coli 750; E. coli 750,1
same,MIC,"Escherichia coli 750; E. coli 750, clinical strain, Rennes urinary catheter, broth microdilution, 3 independent experiments",1 (1.3) μM
same,MBC/MIC,K. pneumoniae 13829; K. pneumoniae 13829,2
same,MIC,"K. pneumoniae 13829; K. pneumoniae 13829, clinical strain, Caen hemoculture, broth microdilution, 3 independent experiments",8 (10.4) μM
same,MBC/MIC,Escherichia coli MCR−1; E. coli MCR−1,1
same,MIC,"Escherichia coli MCR−1; E. coli MCR−1, clinical strain, Caen hemoculture, broth microdilution, 3 independent experiments",2 (2.6) μM
same,MBC/MIC,[2],2
same,MIC,[2]; [6],8 (10.4) μM
same,MBC/MIC,Escherichia coli ML35P,1
same,MBC/MIC,Escherichia coli 13090; E. coli 13090,1
same,MIC,"Escherichia coli 13090; E. coli 13090, clinical strain, Caen hemoculture, broth microdilution, 3 independent experiments",0.5 (0.65) μM
same,MBC/MIC,Escherichia coli 758; E. coli 758,1
same,MIC,"Escherichia coli 758; E. coli 758, clinical strain, Rennes urinary catheter, broth microdilution, 3 independent experiments",0.5 (0.65) μM
same,MBC/MIC,P. aeruginosa 15643 [3]; P. aeruginosa 15643,2
same,MIC,"P. aeruginosa 15643 [3]; P. aeruginosa 15643, clinical strain, Caen hemoculture, broth microdilution, 3 independent experiments",0.5 (0.65) μM
same,MBC/MIC,K. pneumoniae 13825; K. pneumoniae 13825,2
same,MIC,"K. pneumoniae 13825; K. pneumoniae 13825, clinical strain, Caen hemoculture, broth microdilution, 3 independent experiments",2 (2.6) μM
same,MBC/MIC,P. aeruginosa 15644; P. aeruginosa 15644,2
same,MIC,"P. aeruginosa 15644; P. aeruginosa 15644, clinical strain, Caen hemoculture, broth microdilution, 3 independent experiments",1 (1.3) μM
same,MBC/MIC,P. aeruginosa 15641; P. aeruginosa 15641,2
same,MIC,"P. aeruginosa 15641; P. aeruginosa 15641, clinical strain, Caen hemoculture, broth microdilution, 3 independent experiments",1 (1.3) μM
same,Half-life in mouse serum,[4],640 ± 162 min
same,Half-life in human serum,[5],1380 ± 200 min
